Source: patent US12097213B2, “Sequential treatment of cancers using 6-thio-dG, checkpoint inhibitors and radiation therapy” (The Board of Regents of the University of Texas System, priority 2020, dated 2024)

Tests used:
[1] = test system: MC38 cells; assay: Telomere dysfunction Induced Foci (TIF) and micronuclei assays in cells; format: cell-based, mouse
Procedure: Telomere dysfunction Induced Foci (TIF) and micronuclei assays. The TIF assay is based on the co-localization detection of DNA damage by an antibody against DNA damage response factors such as gamma-H2AX, 53BP1, and antibody against telomeric proteins or telomeres using telomere sequence-specific peptide nucleic acid (PNA) probe (Mender and Shay, 2015). Briefly, cells were seeded into 4-well chamber slides. Next day, cells were treated with 1 μM 6-thio-dG for 24 hrs (for TIF assay) or 1-3 μM 6-thio-dG for 48 hrs (for micronuclei assay). Slides were then rinsed twice with PBS and fixed in 4% formaldehyde (Thermo Fisher) in PBS for 10 mins. Then, cells were washed twice with PBS and permeabilized in 0.5% Triton X-100 in PBS for 10 min. Following permeabilization, cells were washed three times with PBS. Cells were blocked with 10% goat serum in 0.1% PBST (TritonX-100) for 1 hr. Gamma-H2AX (TIF assay, mouse, 1:1000) (Millipore) or lamin A/C (micronuclei assay, mouse, 1:500) (Santa Cruz) was diluted in blocking solution and incubated on cells for 2 hrs. Following three washes with PBST (1×PBS in 0.1% Triton) and 3 washes with PBS, cells were incubated with Alexaflour 568 conjugated goat anti-mouse (1:500) (Invitrogen) for 40 mins, then washed five times with 0.1% PBST. Cells were fixed in 4% formaldehyde in PBS for 20 mins at RT. The slides were sequentially dehydrated with 70%, 90%, 100% ethanol followed by denaturation with hybridization buffer containing FAM-conjugated telomere sequence (C-rich)-specific PNA probe, 70% formamide, 30% 2×SSC, 10% (w/v) MgCl2·6H2O (Fisher Sci), 0.25% (w/v) blocking reagent for nucleic acid hybridization and detection (Roche) for 7 mins at 80° C. on a heat block, followed by overnight incubation at RT. Slides were washed sequentially with 70% formamide (Ambion)/0.6×SSC (Invitrogen) (2×1 hr), 2×SSC (1×15 mins), PBS (1×5 mins) and sequentially dehydrated with 70%, 90%, 100% ethanol, then mounted with Vectashield mounting medium with DAPI (Vector Laboratories). […] TIFs were quantified using Image J.

[2] = test system: CT26 murine colon cancer cells; assay: Cell viability assay (CellTiter 96), CT26; format: cell-based, mouse
Procedure: Cell viability assay. For determination of IC50 with cell proliferation assays, murine and human cancer cell lines were screened with 6-thio-dG with a 2-fold dilution series in 8 different points in 96-well plates. Cells were plated 24 hrs prior to the addition of drug, incubated for 4-5 days, and assayed using CellTiter 96® Aqueous One Solution Cell Proliferation Assay according to the manufacturer's instructions (Promega). Cell number per well ranged from 1,000 to 10,000 cells per well inversely proportional to doubling times. Dose response curves were generated and IC50s calculated using Graphpad Prism. All samples were analyzed in triplicate and standard deviations are from 2-3 independent experiments.

[3] = test system: A375 tumor cells; assay: A375 tumor model in NSG-SGM3 and humanized NSG-SGM3 mice; format: in vivo, mouse
Procedure: FIGS. 13A-F (related to FIGS. 6A-E). (FIGS. 13A-C) 12 weeks after humanized mouse reconstitution, human CD45+ cells and CD3+ T cells in mouse peripheral blood were tested by flow cytometry. (FIG. 13D) Cell viability (IC50) of 6-thio-dG in A375 human melanoma cancer cells. Cells were treated with 6-thio-dG for 4 days. (FIG. 13E) NSG-SGM3 mice (n=5) were inoculated with 2×10^6 A375 tumor cells and treated with 6-thio-dG (3 mg/kg, day 7 and day 8) or anti-PD-L1 plus anti-CTLA-4 (200 μg i.p., day 10 and day 13) or the combination of 6-thio-dG plus anti-PD-L1 and anti-CTLA-4. Tumor growth was measured every 3 days. (FIG. 13F) Humanized NSG-SGM3 mice (n=5-7) were inoculated with 2×10^6 A375 tumor cells and treated with 6-thio-dG (3 mg/kg, day 13 and day 14) or anti-PD-L1 plus anti-CTLA-4 (200 μg i.p., day 16 and day 19) or the combination of 6-thio-dG plus anti-PD-L1 and anti-CTLA-4. Tumor growth was measured every 3 days. Data were shown as mean±SEM. P value was determined by two-tailed unpaired t test (FIGS. 13B and 13C, n.s. p>0.05) or two-way ANOVA (FIG. 13F).
Humanized mouse tumor models. Humanized mouse reconstitution was previously described (Qiao et al., 2019). Briefly, four-week-old NSG-SGM3 female mice were irradiated with 100 cGy (X-ray irradiation with X-RAD 320 irradiator) one day prior to human CD34+ cells transfer. […] Tumor volumes were measured twice a week. […]

[4] = test system: TBK1; assay: Immunoblotting of DCs after co-culture; format: cell-based, mouse; conditions: co-culture 6 hrs with MC38 pretreated with 0.2 μM or 1 μM 6-thio-dG
Procedure: Immunoblotting. BMDC and MC38 treatment were same as “In vitro co-culture of bone marrow dendritic cells”. 6 hrs after co-culture, DC was isolated with CD11c+ positive selection kit (Stemcell). Protein sample preparation and immunoblot procedures were performed as previously described (Liu et al., 2019). Proteins were detected with rabbit monoclonal antibodies for pSTING (Cell signaling, 72971), STING (Cell signaling, 50494), pTBK1 (Cell signaling, 5483), TBK1 (Cell signaling, 3504). Protein loading was determined with antibodies against with Cyclophilin A (Cell signaling, 2175). Anti-rabbit (1:2000 in 5% BSA) was used for secondary antibody (Cell signaling, 7074). X-ray film (GeneMate, F-9024-8X10) was used to develop the membranes. Clarity Max Western ECL Substrate (Biorad, 1705062) or Supersignal West PicoPlus Chemiluminescent Substrate (Thermoscientific, 34577) was used for chemiluminescent western blot.

Nc1nc2c(ncn2[C@H]2C[C@H](O)[C@@H](CO)O2)c(=S)[nH]1 [6-thio-dG, 6-thio-2′-deoxyguanosine]
interphase bridges between daughter cells during telophase [1]: induced interphase bridges
telomere stress by TIF assay ([1]; 1 μM 6-thio-dG for 24 hrs): induced telomere damages
micronuclei ([1]; 1 μM 6-thio-dG, 48 hrs): induced micronuclei
cell viability in vitro [2]: cell viability inhibition
tumor growth / tumor burden ([3]; humanized NSG-SGM3 mice, 6-thio-dG 3 mg/kg day 13 and 14, anti-PD-L1 plus anti-CTLA-4 200 μg i.p. day 16 and 19): partially delayed tumor growth
tumor growth ([3]; immunocompromised NSG-SGM3 mice, 3 mg/kg, day 7 and day 8): did not observe any effect
TBK1 phosphorylation in DCs [4]: increase
